Measured values from article PMC7003846, “Effects of the ventilatory stimulant, doxapram on human TASK‐3 (KCNK9, K2P9.1) channels and TASK‐1 (KCNK3, K2P3.1) channels” (Acta Physiologica (Oxford, England), 2019).

Columns and labels:
[1] = target: T1, murTASK-3/murTASK-1 heterodimer channels (Mus musculus, UniProt O35111+Q3LS21); experiment: Whole-cell patch clamp, forced heterodimer murTASK-3/murTASK-1; format: cell-based
T1 construct: expressed in transfected cells; host or cells: tsA201 (modified HEK293), transient transfection
T1 sequence (Q3LS21 whole entry): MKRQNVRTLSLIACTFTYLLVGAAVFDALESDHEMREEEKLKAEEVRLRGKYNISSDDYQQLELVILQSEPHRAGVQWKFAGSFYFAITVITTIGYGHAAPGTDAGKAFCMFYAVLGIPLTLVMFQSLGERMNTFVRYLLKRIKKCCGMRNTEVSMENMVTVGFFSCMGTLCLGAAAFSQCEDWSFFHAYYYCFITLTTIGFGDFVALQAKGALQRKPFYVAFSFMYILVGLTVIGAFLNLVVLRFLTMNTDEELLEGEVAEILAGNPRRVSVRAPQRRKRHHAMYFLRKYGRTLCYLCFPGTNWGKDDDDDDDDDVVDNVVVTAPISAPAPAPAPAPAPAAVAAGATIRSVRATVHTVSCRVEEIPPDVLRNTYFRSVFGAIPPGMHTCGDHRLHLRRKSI
T1 sequence (O35111 whole entry): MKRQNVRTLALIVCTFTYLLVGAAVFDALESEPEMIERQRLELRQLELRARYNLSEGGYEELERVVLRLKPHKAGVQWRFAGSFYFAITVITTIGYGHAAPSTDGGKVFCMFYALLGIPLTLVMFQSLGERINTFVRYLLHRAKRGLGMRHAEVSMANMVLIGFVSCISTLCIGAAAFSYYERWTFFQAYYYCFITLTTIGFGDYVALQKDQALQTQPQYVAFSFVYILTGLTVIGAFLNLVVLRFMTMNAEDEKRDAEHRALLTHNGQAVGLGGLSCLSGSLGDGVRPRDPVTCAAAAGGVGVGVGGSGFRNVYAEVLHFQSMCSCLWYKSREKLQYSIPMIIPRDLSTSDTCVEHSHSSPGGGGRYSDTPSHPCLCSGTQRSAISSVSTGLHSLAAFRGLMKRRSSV
Description: (§1) Murine (mur) wild‐type (WT) TASK‐1 (KCNK3, Genbank^TM DQ185133) and WT murTASK‐3 (KCNK9, Genbank^TM AH009585.2) cDNA were cloned into pCS2^+ vector and were a kind gift from William Wisden (Imperial College, UK). Human WT TASK‐1 (Genbank^TM AF006823.1), WT TASK‐3 (Genbank^TM AF212829) and WT TASK‐2 (KCNK5, Genbank^TM AF084830.1) cDNA’s, were cloned into pcDNA3.1^+ vector (Invitrogen) and were a kind gift from Helen Meadows (GlaxoSmithKline).
(§2) All experiments were performed using a modified human embryonic kidney 293 cell line, tsA201 (ECACC; Sigma‐Aldrich), prepared and maintained as previously described.54 […]
(§3) Currents were recorded from tsA201 cells transiently transfected with the channel of interest using whole‐cell patch clamp in a voltage clamp configuration and a step‐ramp voltage protocol as previously described.54 Briefly, all experiments were conducted at room temperature (20‐24°C) using an external solution composed of 145 mM of NaCl, 2.5 mM of KCL, 3 mM of MgCl2, 1 mM of CaCl2 and 10 mM of HEPES (pH 7.4, using NaOH) and an intracellular pipette solution composed of 150 mM of KCL, 3 mM of MgCl2, 5 mM of EGTA and 10 mM of HEPES (pH adjusted to 7.4 with KOH). […] Currents were recorded using an Axopatch 1D patch clamp amplifier (Molecular Devices), filtered at 0.3 kHz, digitized at 1 kHz.
(§4) For analysis of outward current, we measured the current difference between the −80 and −40 mV. […]

[2] = target: T2, TASK-3_G236D (Homo sapiens, UniProt Q9NPC2, G236D); experiment: Whole-cell patch clamp, human TASK-3 pore mutant G236D; format: cell-based; conditions: 10 µM (Figure 6C); read-out: percentage inhibition of TASK-3_G236D
T2 construct: expressed in transfected cells; host or cells: tsA201 (modified HEK293), transient transfection
T2 sequence (Q9NPC2 whole entry G236D): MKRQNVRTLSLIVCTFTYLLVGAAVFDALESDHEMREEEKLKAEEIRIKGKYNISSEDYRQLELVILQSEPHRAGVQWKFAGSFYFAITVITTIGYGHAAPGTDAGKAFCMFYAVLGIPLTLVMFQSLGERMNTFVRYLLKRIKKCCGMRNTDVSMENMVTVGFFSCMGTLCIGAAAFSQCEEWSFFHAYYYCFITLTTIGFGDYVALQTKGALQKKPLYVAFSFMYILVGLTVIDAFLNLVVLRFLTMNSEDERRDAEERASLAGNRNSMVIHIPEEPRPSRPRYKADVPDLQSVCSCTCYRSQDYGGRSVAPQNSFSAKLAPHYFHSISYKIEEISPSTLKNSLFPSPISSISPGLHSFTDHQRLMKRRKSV
Source text: as §1
(§5) Point mutations (L122D, G236D, L239D, V242D or a stop codon) were introduced by site‐directed mutagenesis into TASK‐3 cDNA using the Quikchange kit (Stratagene) as previously described.54 […]
as §3, with “kHz. […]” for “kHz.”

[3] = target: T3, human TASK-3 (Homo sapiens, UniProt Q9NPC2); experiment: Whole-cell patch clamp on tsA201 cells expressing cloned human TASK-3; format: cell-based
T3 construct: expressed in transfected cells; host or cells: tsA201 (modified HEK293), transient transfection, pcDNA3.1+
T3 sequence (Q9NPC2 whole entry): as the sequence (Q9NPC2 whole entry G236D) above, with D236G counted along it
Description: as §1
(§6) All experiments were performed using a modified human embryonic kidney 293 cell line, tsA201 (ECACC; Sigma‐Aldrich), prepared and maintained as previously described.54
(§7) For the electrophysiological experiments, cells were transiently transfected using a modified calcium phosphate protocol, following a process as previously described.54 Vectors cloned with the gene of interest and a similar vector encoding the cDNA for GFP were added to each well at a concentration of 0.5 µg per well, with the exception being for murTASK‐3, where 0.125 µg per well was used.
(§8) Currents were recorded from tsA201 cells transiently transfected with the channel of interest using whole‐cell patch clamp in a voltage clamp configuration and a step‐ramp voltage protocol as previously described.54 Briefly, all experiments were conducted at room temperature (20‐24°C) using an external solution composed of 145 mM of NaCl, 2.5 mM of KCL, 3 mM of MgCl2, 1 mM of CaCl2 and 10 mM of HEPES (pH 7.4, using NaOH) and an intracellular pipette solution composed of 150 mM of KCL, 3 mM of MgCl2, 5 mM of EGTA and 10 mM of HEPES (pH adjusted to 7.4 with KOH). External solution and modulatory compounds were superfused at a rate of 4‐5 mL min^−1. Currents were recorded using an Axopatch 1D patch clamp amplifier (Molecular Devices), filtered at 0.3 kHz, digitized at 1 kHz.
(§9) For analysis of outward current, we measured the current difference between the −80 and −40 mV. The current‐voltage graphs were obtained from the ramp change in voltage between −120 and +20 mV. For each cell, the current amplitude (pA) was normalized to the cell capacitance (pF). The currents obtained were analysed using pCLAMP 10.2 software (Molecular Devices), Microsoft Excel and GraphPad Prism 6 or 7 software. Data were expressed as the mean ± 95% Confidence Intervals (CI), and n represents the number of individual cells. For EC50 calculations, concentration‐response curves were fitted using the Hill equation. Statistical analysis used were one‐way ANOVA with a post‐hoc Dunnett's test or an unpaired/paired Student's t test. Data were considered statistically different if P < .05. The data and statistical analysis comply with the recommendations on experimental design and analysis in pharmacology.55

[4] = target: T4, murT3_Δ250 (Mus musculus, UniProt Q3LS21); experiment: Whole-cell patch clamp, C-terminally truncated mouse TASK-3; format: cell-based
T4 construct: Removal of the carboxy terminal of murTASK‐3 (murT3) attenuates doxapram effect further; expressed in transfected cells; host or cells: tsA201 (modified HEK293), transient transfection
T4 sequence (Q3LS21 1-249 limits assumed, stated change not applied): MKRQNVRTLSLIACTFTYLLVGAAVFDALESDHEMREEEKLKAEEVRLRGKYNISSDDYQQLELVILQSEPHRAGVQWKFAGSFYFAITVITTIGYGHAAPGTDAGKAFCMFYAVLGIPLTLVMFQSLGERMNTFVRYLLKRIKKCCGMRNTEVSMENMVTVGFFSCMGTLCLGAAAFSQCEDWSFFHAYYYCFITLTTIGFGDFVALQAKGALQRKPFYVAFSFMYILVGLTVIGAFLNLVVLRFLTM
Source text: as §1, §5
as §3, with “kHz. […]” for “kHz.”

[5] = system: rat TASK-1/TASK-3 heterodimeric channels; conditions: cloned rat channels; cited from earlier work
[6] = system: rat TASK-1 homodimeric channels; conditions: cited from earlier work
[7] = target: T5, TASK-3_L122D (Homo sapiens, UniProt Q9NPC2, L122D); experiment: Whole-cell patch clamp, human TASK-3 pore mutant L122D; format: cell-based
T5 construct: expressed in transfected cells; host or cells: tsA201 (modified HEK293), transient transfection
T5 sequence (Q9NPC2 whole entry L122D): as the sequence (Q9NPC2 whole entry G236D) above, with L122D, D236G counted along it
Source text: as §1, §5
as §3, with “kHz. […]” for “kHz.”

[8] = target: T6, hTASK-3_Δ250 (Homo sapiens, UniProt Q9NPC2); experiment: Whole-cell patch clamp, C-terminally truncated human TASK-3; format: cell-based
T6 construct: truncating the channel to remove the C‐terminal of the human TASK‐3 channel (hTASK‐3_Δ250); expressed in transfected cells; host or cells: tsA201 (modified HEK293), transient transfection
T6 sequence (Q9NPC2 1-249 limits assumed, stated change not applied): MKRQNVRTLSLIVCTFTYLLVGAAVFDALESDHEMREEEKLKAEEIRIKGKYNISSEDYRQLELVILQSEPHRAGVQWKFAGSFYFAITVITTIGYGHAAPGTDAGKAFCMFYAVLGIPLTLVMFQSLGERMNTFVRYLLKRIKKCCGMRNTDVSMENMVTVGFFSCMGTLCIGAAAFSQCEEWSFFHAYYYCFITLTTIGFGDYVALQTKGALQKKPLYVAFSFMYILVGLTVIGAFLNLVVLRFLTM
Source text: as §1, §5
as §3, with “kHz. […]” for “kHz.”

[9] = system: rat TASK-3 homodimeric channels; conditions: cloned rat channels; cited from earlier work
[10] = target: T7, murTASK-1 (Mus musculus, UniProt O35111); experiment: Whole-cell patch clamp on tsA201 cells expressing cloned mouse TASK-1; format: cell-based
T7 construct: expressed in transfected cells; host or cells: tsA201 (modified HEK293), transient transfection, pCS2+
T7 sequence (O35111 whole entry): as the sequence (O35111 whole entry) above
Description: as §1, §6, §7, §8, §9

[11] = target: T8, human TASK-1 (Homo sapiens, UniProt O14649); experiment: Whole-cell patch clamp on tsA201 cells expressing cloned human TASK-1; format: cell-based
T8 construct: expressed in transfected cells; host or cells: tsA201 (modified HEK293), transient transfection, pcDNA3.1+
T8 sequence (O14649 whole entry): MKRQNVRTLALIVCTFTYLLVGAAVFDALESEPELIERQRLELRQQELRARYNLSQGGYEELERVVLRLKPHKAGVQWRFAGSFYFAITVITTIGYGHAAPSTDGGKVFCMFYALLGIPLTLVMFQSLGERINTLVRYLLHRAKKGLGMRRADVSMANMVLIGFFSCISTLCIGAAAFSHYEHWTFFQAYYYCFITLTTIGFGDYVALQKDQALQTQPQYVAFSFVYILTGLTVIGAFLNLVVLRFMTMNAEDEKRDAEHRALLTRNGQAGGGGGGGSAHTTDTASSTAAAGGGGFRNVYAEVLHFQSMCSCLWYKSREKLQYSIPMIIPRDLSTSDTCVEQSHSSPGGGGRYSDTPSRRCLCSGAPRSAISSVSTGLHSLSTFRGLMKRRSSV
Description: as §1, §6, §7, §8, §9

[12] = target: T9, murTASK-3 (Mus musculus, UniProt Q3LS21); experiment: Whole-cell patch clamp on tsA201 cells expressing cloned mouse TASK-3; format: cell-based
T9 construct: expressed in transfected cells; host or cells: tsA201 (modified HEK293), transient transfection, pCS2+
T9 sequence (Q3LS21 whole entry): as the sequence (Q3LS21 whole entry) above
Description: as §1, §6, §7, §8, §9

[13] = target: T10, murTASK-1/murTASK-3 heterodimer channels (Mus musculus, UniProt O35111+Q3LS21); experiment: Whole-cell patch clamp, forced heterodimer murTASK-1/murTASK-3; format: cell-based
T10 construct: expressed in transfected cells; host or cells: tsA201 (modified HEK293), transient transfection
T10 sequence (O35111 whole entry): as the sequence (O35111 whole entry) above
T10 sequence (Q3LS21 whole entry): as the sequence (Q3LS21 whole entry) above
Description: as §1, §2, §3, §4

[14] = target: T11, human TASK-2 (Homo sapiens, UniProt O95279); experiment: Whole-cell patch clamp on tsA201 cells expressing cloned human TASK-2; format: cell-based; conditions: acute application, read-out: inhibition of WT TASK-2 current
T11 construct: expressed in transfected cells; host or cells: tsA201 (modified HEK293), transient transfection, pcDNA3.1+
T11 sequence (O95279 1-499): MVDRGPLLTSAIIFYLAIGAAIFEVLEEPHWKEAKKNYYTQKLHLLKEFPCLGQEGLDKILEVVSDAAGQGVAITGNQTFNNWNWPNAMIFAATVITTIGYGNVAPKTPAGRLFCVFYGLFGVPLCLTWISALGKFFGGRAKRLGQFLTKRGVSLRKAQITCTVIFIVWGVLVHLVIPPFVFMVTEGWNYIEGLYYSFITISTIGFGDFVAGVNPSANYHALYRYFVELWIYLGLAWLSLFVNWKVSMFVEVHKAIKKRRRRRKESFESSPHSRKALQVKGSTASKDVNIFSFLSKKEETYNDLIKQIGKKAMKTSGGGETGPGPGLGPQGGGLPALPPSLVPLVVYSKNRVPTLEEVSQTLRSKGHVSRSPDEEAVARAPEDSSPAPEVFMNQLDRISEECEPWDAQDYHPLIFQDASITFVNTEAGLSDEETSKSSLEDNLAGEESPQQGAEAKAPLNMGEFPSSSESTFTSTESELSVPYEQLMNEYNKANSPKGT
Description: as §1, §2, §3, §4

[15] = target: T12, TASK-3_V242D (Homo sapiens, UniProt Q9NPC2, V242D); experiment: Whole-cell patch clamp, human TASK-3 pore mutant V242D; format: cell-based; conditions: 10 µM (Figure 6C); read-out: percentage inhibition of TASK-3_V242D
T12 construct: expressed in transfected cells; host or cells: tsA201 (modified HEK293), transient transfection
T12 sequence (Q9NPC2 whole entry V242D): as the sequence (Q9NPC2 whole entry G236D) above, with D236G, V242D counted along it
Source text: as §1, §5
as §3, with “kHz. […]” for “kHz.”

[16] = target: T13, TASK-3_L239D (Homo sapiens, UniProt Q9NPC2, L239D); experiment: Whole-cell patch clamp, human TASK-3 pore mutant L239D; format: cell-based; conditions: 10 µM (Figure 6C); read-out: percentage inhibition of TASK-3_L239D
T13 construct: expressed in transfected cells; host or cells: tsA201 (modified HEK293), transient transfection
T13 sequence (Q9NPC2 1-374 L239D): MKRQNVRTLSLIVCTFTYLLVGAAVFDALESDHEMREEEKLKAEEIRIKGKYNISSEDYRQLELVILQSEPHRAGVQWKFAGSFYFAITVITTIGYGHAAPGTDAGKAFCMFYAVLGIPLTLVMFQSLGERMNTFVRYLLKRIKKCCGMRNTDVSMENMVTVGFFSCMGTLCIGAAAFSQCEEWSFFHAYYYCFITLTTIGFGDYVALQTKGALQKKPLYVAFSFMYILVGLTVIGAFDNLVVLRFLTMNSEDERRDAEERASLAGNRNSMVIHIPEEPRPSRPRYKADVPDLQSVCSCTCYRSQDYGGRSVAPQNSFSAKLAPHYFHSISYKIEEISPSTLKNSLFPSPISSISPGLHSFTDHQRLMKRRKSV
Source text: as §1, §5
as §3, with “kHz. […]” for “kHz.”

[17] = concentration-response 0.3-100 µM

## CCN1CC(CCN2CCOCC2)C(c2ccccc2)(c2ccccc2)C1=O (stereo not shown) [doxapram, 1‐ethyl‐4‐(2‐morpholinoethyl)‐3,3‐diphenyl‐2‐pyrrolidinone]
[1]
  inhibition at 10 µM: 42%
[2]
  inhibition at 10 µM: 26%
[3]; 10 µM, acute application, WT
  inhibition of human TASK-3 current: 62%
[3]; 10 µM, washout
  recovery from inhibition of TASK-3: faster and more complete
[3]; [17]
  Hill slope, human TASK-3: 0.8
[3]; tsA201, 10 µM, acute application, WT, read-out: inhibition of human TASK-3 current
  inhibition at 10 µM: 68%
[3]; tsA201 cells, whole-cell patch clamp, room temperature, read-out: EC50, inhibition of human TASK-3 current
  EC50: 2.5 µM
[4]
  inhibition at 10 µM: 4%
[5]
  EC50: 9 µM
[6]; cloned rat channels
  EC50: 0.41 µM
[6]; rat channels
  fold more potent on TASK-1 or heteromultimers of TASK-1 and TASK-3 than on TASK-3: 90 fold
[7]; 10 µM (Figure 6C), read-out: percentage inhibition of TASK-3_L122D
  inhibition at 10 µM: 6%
[8]
  inhibition at 10 µM: 19%
[9]
  EC50: 37 µM
[10]; calculated from concentration-response curve, read-out: 50% effective concentration, murTASK-1
  EC50: 1.5 µM
[10]; tsA201, 1 µM, acute application, read-out: current inhibition of murTASK-1
  inhibition at 1 µM: 28%
[10]; tsA201, 3 µM, acute application, read-out: current inhibition of murTASK-1
  inhibition at 3 µM: 43%
[10]; tsA201, 10 µM, acute application, read-out: current inhibition of murTASK-1
  inhibition at 10 µM: 58%
[11]; 10 µM, washout
  recovery from inhibition of TASK-1: slow and mostly incomplete
[11]; [17]
  Hill slope, human TASK-1: 0.8
[11]; tsA201, 10 µM, acute application, read-out: inhibition of human TASK-1 current
  inhibition at 10 µM: 55%
[11]; tsA201 cells, whole-cell patch clamp, room temperature, read-out: EC50, inhibition of human TASK-1 current
  EC50: 4 µM
[12]; estimated, read-out: 50% effective concentration, murTASK-3
  EC50: ≥ 100 µM
[12]; tsA201, 10 µM, acute application, read-out: current inhibition of murTASK-3
  inhibition at 10 µM: 21%
[12]; tsA201, 100 µM, acute application, read-out: current inhibition of murTASK-3
  inhibition at 100 µM: 56%
[13]
  inhibition at 10 µM: 58%
[14]
  inhibition at 10 µM: 7%
[15]
  inhibition at 10 µM: 27%
[16]
  inhibition at 10 µM: 13%

## [Cl-].[Cl-].[Zn+2] [zinc, Zinc Chloride]
[3]; 100 µM, acute application, WT
  inhibition of human TASK-3 current: 94%
[7]; 100 µM
  inhibition of TASK-3_L122D: 87%
